This is an account of results in patent US9486506B2 (Novo Nordisk A/S, priority 2011, dated 2016).

Numbered stars: 1 amine (or outer) side, 2 acyl side, 3 side chain; on linkers, the order of the positions; unused ones are H or OH. Side chains are listed from the residue outwards. Peptide text beside a SMILES is read from it. * marks the point of attachment. C18 diacid = O=C(O)CCCCCCCCCCCCCCCCC(=O)*; γGlu = O=C(O)[C@H](CCC(=O)[*:2])N[*:1]; AEEA = NCCOCCOCC(=O)O

In this experiment the target is T1, glucagon receptor (Homo sapiens, UniProt P47871).
T1 construct: expressed in transfected cells
T1 sequence (P47871 26-477): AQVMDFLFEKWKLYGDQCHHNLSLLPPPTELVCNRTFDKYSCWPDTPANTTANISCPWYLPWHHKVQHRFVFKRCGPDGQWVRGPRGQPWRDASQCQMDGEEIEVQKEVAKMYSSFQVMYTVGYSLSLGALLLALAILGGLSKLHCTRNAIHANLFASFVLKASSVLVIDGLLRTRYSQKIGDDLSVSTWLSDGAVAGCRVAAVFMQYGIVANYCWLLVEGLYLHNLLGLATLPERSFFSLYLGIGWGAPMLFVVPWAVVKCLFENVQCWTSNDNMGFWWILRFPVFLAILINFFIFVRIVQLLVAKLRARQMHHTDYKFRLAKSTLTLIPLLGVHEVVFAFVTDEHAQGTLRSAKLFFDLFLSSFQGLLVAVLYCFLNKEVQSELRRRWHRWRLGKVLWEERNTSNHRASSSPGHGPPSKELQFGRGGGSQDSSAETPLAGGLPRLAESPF
The experiment can be described thus: Assay (I) Glucagon activity (cAMP biosensor, FLIPR). It counts as cell-based. The method, then:
The cells (14000 per well) were incubated (37° C., 5% CO2) overnight in 384-well plates. Next day the cells were loaded with a calcium responsive dye that only distributed into the cytoplasm. Probenecid, an inhibitor of the organic anion transporter, was added to prevent the dye from leaving the cell. A PDE inhibitor was added to prevent formatted cAMP from being degraded. The plates were placed into a […] and the glucagon analogues were added. End point data were collected after 6 minutes. An increase in intracellular cAMP was proportional to an increased in calcium concentrations in the cytoplasm. When calcium was bound the dry a fluorescence signal was generated. EC50-values were calculated in Prism5.

What is called EC50 is the concentration needed to bring the measured effect to its halfway point. For `CC(C)C[C@H](NC(=O)[C@H](Cc1ccc(O)cc1)NC(=O)[C@H](CCCCN)NC(=O)[C@H](CO)NC(=O)[C@H](Cc1ccc(O)cc1)NC(=O)[C@H](CC(=O)O)NC(=O)[C@H](CO)NC(=O)[C@@H](NC(=O)[C@H](Cc1ccccc1)NC(=O)[C@@H](NC(=O)CNC(=O)[C@H](Cc1c[nH]cn1)NC(=O)[C@H](CO)NC(=O)[C@@H](N)Cc1c[nH]cn1)[C@@H](C)O)[C@@H](C)O)C(=O)N[C@@H](CC(=O)O)C(=O)N[C@@H](CO)C(=O)N[C@@H](CCCNC(=N)N)C(=O)N[C@@H](CCCNC(=N)N)C(=O)N[C@@H](C)C(=O)N[C@@H](CCC(N)=O)C(=O)N[C@@H](CC(=O)O)C(=O)N[C@@H](Cc1ccccc1)C(=O)N[C@H](C(=O)N[C@@H](CCCCNC(=O)CC[C@H](NC(=O)CC[C@H](NC(=O)COCCOCCNC(=O)COCCOCCNC(=O)CC[C@H](NC(=O)CCCCCCCCCCCCCCCCC(=O)O)C(=O)O)C(=O)O)C(=O)O)C(=O)N[C@@H](Cc1c[nH]c2ccccc12)C(=O)N[C@@H](CC(C)C)C(=O)N[C@@H](CC(C)C)C(=O)N[C@@H](CO)C(=O)N[C@H](C(=O)O)[C@@H](C)O)C(C)C` [Example 2, N^ε24-[(4S)-4-carboxy-4-[[(4S)-4-carboxy-4-[[2-[2-[2-[[2-[2-[2-[[(4S)-4-carboxy-4-(17-carboxyheptadecanoylamino)butanoyl]amino]ethoxy]ethoxy]acetyl]amino]ethoxy]ethoxy]acetyl]amino]butanoyl]amino]butanoyl]-[His^3,Lys^24,Leu^27,Ser^28]-Glucagon], the EC50 amounted to 129 pM.
The figure for `CC(C)C[C@H](NC(=O)[C@H](Cc1ccc(O)cc1)NC(=O)[C@H](CCCCN)NC(=O)[C@H](CO)NC(=O)[C@H](Cc1ccc(O)cc1)NC(=O)[C@H](CC(=O)O)NC(=O)[C@H](CO)NC(=O)[C@@H](NC(=O)[C@H](Cc1ccccc1)NC(=O)[C@@H](NC(=O)CNC(=O)[C@H](Cc1c[nH]cn1)NC(=O)[C@H](CO)NC(=O)[C@@H](N)Cc1c[nH]cn1)[C@@H](C)O)[C@@H](C)O)C(=O)N[C@@H](CC(=O)O)C(=O)N[C@@H](CO)C(=O)N[C@@H](CCCNC(=N)N)C(=O)N[C@@H](CCCNC(=N)N)C(=O)N[C@@H](C)C(=O)N[C@@H](CCCCN)C(=O)N[C@@H](CC(=O)O)C(=O)N[C@@H](Cc1ccccc1)C(=O)N[C@H](C(=O)N[C@@H](CCCCNC(=O)CC[C@H](NC(=O)CC[C@H](NC(=O)COCCOCCNC(=O)COCCOCCNC(=O)CC[C@H](NC(=O)CCCCCCCCCCCCCCCCC(=O)O)C(=O)O)C(=O)O)C(=O)O)C(=O)N[C@@H](Cc1c[nH]c2ccccc12)C(=O)N[C@@H](CC(C)C)C(=O)N[C@@H](CC(C)C)C(=O)N[C@@H](CO)C(=O)N[C@H](C(=O)O)[C@@H](C)O)C(C)C` [Example 3, N^ε24-[(4S)-4-carboxy-4-[[(4S)-4-carboxy-4-[[2-[2-[2-[[2-[2-[2-[[(4S)-4-carboxy-4-(17-carboxyheptadecanoylamino)butanoyl]amino]ethoxy]ethoxy]acetyl]amino]ethoxy]ethoxy]acetyl]amino]butanoyl]amino]butanoyl]-[His^3,Lys^20,Lys^24,Leu^27,Ser^28]-Glucagon] (H-HSHGTFTSDYSKYLDSRRAKDFVK([γGlu-γGlu-AEEA-AEEA-γGlu-C18 diacid])WLLST-OH) is 249 pM.
